According to patent US20250313535A1, “ALPHA 4 BETA 7 INTEGRIN MODULATORS AND USES THEREOF” (DICE MOLECULES SV, INC., priority 2022, published 2025):

Columns and labels:
[1] = biological target: α4β7 integrin (Homo sapiens (Human), UniProt P13612+P26010); assay: Integrin Adhesion Assay: Protocol 4 (MAdCAM-coated plate, RPMI-8866 cells with stable LOF mutation of the ITGB1 gene); assay type: cell-based; conditions: RPMI-8866 cells with stable LOF mutation of the ITGB1 gene; read-out: Mean IC50 α4β7 KO^a
How it was run: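 RPMI-8866 cells with CRISPR/Cas9 knockout of ITGB1 (2×10^6/mL) were added to MAdCAM-coated wells with compound (1% DMSO) in HEPES/NaCl buffer with 1 mM MnCl2, 0.1 mM CaCl2 and 1% BSA, then incubated 1 h at 37 °C. After four washes, adherent cells were quantified by CellTiter-Glo luminescence. Percent inhibition versus DMSO and control compound was fitted to 4-parameter curves.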

[2] = biological target: α4β1 integrin (Homo sapiens (Human), UniProt P05556+P13612); assay: Integrin Adhesion Assay: Protocol 5 (VCAM-coated plate, RPMI-8866 cells with stable LOF mutation of the ITGB7 gene); assay type: cell-based; conditions: RPMI-8866 cells with stable LOF mutation of the ITGB7 gene; read-out: Mean IC50 α4β1 KO^b
How it was run: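 RPMI-8866 B cells with CRISPR/Cas9 ITGB7 knockout (clonal, verified by flow cytometry) adhered to VCAM-coated wells for 1 h at 37° C in HEPES/NaCl buffer with 1 mM MnCl2, 0.1 mM CaCl2, 1% BSA, 1% DMSO. Bound cells quantified by CellTiter-Glo luminescence after washing; % inhibition versus DMSO and control, 4-parameter fit.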

Chain of α4β1 integrin (P13612 34-1032): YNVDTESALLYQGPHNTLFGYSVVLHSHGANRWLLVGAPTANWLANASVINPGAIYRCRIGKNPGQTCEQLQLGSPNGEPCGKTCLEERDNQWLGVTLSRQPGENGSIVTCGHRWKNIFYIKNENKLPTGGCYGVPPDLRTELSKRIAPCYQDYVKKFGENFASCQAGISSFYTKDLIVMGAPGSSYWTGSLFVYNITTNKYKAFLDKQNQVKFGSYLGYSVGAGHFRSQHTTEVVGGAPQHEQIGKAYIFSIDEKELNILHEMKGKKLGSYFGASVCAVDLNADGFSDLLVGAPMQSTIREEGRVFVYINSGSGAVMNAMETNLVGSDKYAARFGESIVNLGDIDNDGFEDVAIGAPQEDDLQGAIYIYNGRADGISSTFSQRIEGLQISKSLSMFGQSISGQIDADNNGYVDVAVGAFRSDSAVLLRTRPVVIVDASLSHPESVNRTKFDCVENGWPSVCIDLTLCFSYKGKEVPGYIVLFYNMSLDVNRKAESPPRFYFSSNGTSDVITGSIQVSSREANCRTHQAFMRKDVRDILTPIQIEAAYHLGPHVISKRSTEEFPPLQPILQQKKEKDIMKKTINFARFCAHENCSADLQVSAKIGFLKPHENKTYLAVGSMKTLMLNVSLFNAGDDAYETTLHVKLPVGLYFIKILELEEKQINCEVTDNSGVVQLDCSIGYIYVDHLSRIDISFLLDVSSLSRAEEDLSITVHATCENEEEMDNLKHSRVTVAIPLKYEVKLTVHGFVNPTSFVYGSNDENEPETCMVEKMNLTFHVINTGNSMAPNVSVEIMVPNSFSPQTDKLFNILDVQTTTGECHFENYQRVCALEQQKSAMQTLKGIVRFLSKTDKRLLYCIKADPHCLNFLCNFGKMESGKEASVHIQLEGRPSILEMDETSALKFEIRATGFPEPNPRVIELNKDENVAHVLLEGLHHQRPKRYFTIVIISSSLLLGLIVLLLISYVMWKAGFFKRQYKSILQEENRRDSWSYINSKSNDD
Chain of α4β1 integrin (P05556 21-798): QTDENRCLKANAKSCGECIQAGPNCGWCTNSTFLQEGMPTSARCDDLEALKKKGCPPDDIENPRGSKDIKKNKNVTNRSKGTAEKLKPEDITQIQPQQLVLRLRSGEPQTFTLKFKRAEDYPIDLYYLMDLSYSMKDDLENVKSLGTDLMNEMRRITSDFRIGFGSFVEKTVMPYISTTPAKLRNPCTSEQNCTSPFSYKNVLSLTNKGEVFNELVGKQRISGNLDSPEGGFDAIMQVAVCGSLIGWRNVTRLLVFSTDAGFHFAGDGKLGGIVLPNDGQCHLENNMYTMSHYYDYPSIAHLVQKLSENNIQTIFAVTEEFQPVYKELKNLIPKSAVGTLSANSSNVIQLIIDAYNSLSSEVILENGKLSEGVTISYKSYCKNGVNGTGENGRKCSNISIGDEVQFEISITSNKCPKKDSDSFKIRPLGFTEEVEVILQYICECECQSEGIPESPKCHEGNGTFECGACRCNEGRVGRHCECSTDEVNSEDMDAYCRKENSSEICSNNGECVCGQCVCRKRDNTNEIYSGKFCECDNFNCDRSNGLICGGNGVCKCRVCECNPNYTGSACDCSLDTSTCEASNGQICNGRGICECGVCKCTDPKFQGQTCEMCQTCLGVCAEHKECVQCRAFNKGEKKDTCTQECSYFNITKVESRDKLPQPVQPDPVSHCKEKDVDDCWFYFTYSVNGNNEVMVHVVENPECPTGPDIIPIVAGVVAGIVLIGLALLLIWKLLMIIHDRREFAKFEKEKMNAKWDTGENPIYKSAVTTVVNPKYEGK
Chain of α4β7 integrin (P13612 34-1032): as the sequence (P13612 34-1032) above
Chain of α4β7 integrin (P26010 20-798): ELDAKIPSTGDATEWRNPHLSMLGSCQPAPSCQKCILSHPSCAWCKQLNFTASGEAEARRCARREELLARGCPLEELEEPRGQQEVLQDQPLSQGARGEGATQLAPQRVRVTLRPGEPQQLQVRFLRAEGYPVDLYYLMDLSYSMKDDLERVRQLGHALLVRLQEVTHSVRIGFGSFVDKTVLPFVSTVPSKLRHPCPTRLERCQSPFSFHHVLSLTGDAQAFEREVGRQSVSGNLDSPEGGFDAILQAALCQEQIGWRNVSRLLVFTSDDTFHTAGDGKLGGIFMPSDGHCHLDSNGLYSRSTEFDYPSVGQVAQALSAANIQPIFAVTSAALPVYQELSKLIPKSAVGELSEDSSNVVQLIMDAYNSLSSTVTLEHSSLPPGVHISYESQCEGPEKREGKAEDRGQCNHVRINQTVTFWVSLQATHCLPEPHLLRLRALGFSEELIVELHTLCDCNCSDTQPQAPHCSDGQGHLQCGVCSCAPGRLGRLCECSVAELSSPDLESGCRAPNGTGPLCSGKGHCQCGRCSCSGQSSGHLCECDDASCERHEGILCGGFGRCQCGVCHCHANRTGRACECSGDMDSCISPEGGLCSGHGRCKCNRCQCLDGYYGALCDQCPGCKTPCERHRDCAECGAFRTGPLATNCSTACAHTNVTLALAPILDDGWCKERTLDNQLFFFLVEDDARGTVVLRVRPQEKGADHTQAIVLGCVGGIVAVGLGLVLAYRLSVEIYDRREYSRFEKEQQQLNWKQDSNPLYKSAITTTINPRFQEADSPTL

## COc1ccc(CN2CCCCC2)c(OC)c1-c1cccc2c(C[C@H](NC(=O)c3c(F)cccc3C(C)C)C(=O)O)cccc12 [Compound 571]
[1]
  IC50: < 0.01 µM
[2]
  IC50: > 1 µM

## COc1ccc(CN2CCCC(F)C2)c(C(F)(F)F)c1-c1cccc2c(C[C@H](NC(=O)c3c(C)cccc3F)C(=O)O)cccc12 (some centres unmarked) [Compound 572]
[1]
  IC50: 0.01 to 0.1 µM
[2]
  IC50: > 1 µM

## COc1ccc(CN2CCC(F)(F)CC2)c(OC)c1-c1cccc2c(C[C@H](NC(=O)C3(C(F)(F)F)CCN([C@H]4COC[C@H]4F)CC3)C(=O)O)cccc12 [Compound 573]
[1]
  IC50: < 0.01 µM
[2]
  IC50: > 1 µM

## COc1ccc(CN2CCC(F)CC2)c(C(F)(F)F)c1-c1cccc2c(C[C@H](NC(=O)c3c(C)cccc3F)C(=O)O)cccc12 [Compound 574]
[1]
  IC50: 0.01 to 0.1 µM
[2]
  IC50: > 1 µM

## COc1ccc(CN2CCCCC2)cc1-c1cccc2c(C[C@H](NC(=O)C3(C(F)(F)F)CCN(CC(F)(F)F)CC3)C(=O)O)cccc12 [Compound 575]
[1]
  IC50: < 0.01 µM
[2]
  IC50: 0.1 to 1 µM

## CC1(C(=O)N[C@@H](Cc2cccc3c(-c4ncc(CN5CCCCC5)c5ccccc45)cccc23)C(=O)O)CCN(CC(F)(F)F)CC1 [Compound 576]
[1]
  IC50: < 0.01 µM
[2]
  IC50: > 1 µM

## O=C(O)[C@H](Cc1cccc2c(-c3ncc(CN4CCCCC4)c4ccccc34)cccc12)NC(=O)C1(C(F)(F)F)CCN(C2COC2)CC1 [Compound 577]
[1]
  IC50: < 0.01 µM
[2]
  IC50: 0.1 to 1 µM

## O=C(O)[C@H](Cc1cccc2c(-c3ncc(CN4CCCCC4)c4ccccc34)cccc12)NC(=O)C1(C(F)(F)F)CCN([C@@H]2COCC2(F)F)CC1 [Compound 578]
[1]
  IC50: < 0.01 µM
[2]
  IC50: > 1 µM

## COc1ccc(CN2CCC(C(C)(C)C)CC2)c(OC)c1-c1cccc2c(C[C@H](NC(=O)c3c(C)cccc3F)C(=O)O)cccc12 [Compound 579]
[1]
  IC50: < 0.01 µM
[2]
  IC50: 0.1 to 1 µM

## O=C(O)[C@H](Cc1cccc2c(-c3ncc(CN4CCC(C(F)(F)F)CC4)c4ccccc34)cccc12)NC(=O)C1(C(F)(F)F)CCN(C2COC2)CC1 [Compound 580]
[1]
  IC50: < 0.01 µM
[2]
  IC50: > 1 µM

## CN(C)Cc1ccc2c(-c3cccc4c(C[C@H](NC(=O)C5(C(F)(F)F)CCN(CC(F)(F)F)CC5)C(=O)O)cccc34)nccc2c1 [Compound 584]
[1]
  IC50: 0.01 to 0.1 µM
[2]
  IC50: > 1 µM

## CN(C)Cc1cc(-c2cccc3c(C[C@H](NC(=O)c4c(F)cc(N5CCOC[C@@H]5C(F)(F)F)cc4CN4CCCC4)C(=O)O)cccc23)c2cnccc2c1 [Compound 587]
[1]
  IC50: < 0.01 µM
[2]
  IC50: > 1 µM

## COc1ccc(CN(C)C)c(OC)c1-c1cccc2c(C[C@H](NC(=O)c3c(C)cccc3CN3CCC(F)(F)CC3)C(=O)O)cccc12 [Compound 588]
[1]
  IC50: 0.1 to 1 µM
[2]
  IC50: > 1 µM

## COc1ccc(CN(C)C)c(OC)c1-c1cccc2c(C[C@H](NC(=O)c3c(F)ccc(F)c3C)C(=O)O)cccc12 [Compound 589]
[1]
  IC50: < 0.01 µM
[2]
  IC50: > 1 µM

## COc1ccc(CN2CC(F)C2)c(OC)c1-c1cccc2c(C[C@H](NC(=O)c3c(C)cccc3F)C(=O)O)cccc12 [Compound 590]
[1]
  IC50: < 0.01 µM
[2]
  IC50: > 1 µM

## CN(C)Cc1cccc2c(-c3cccc4c(C[C@H](NC(=O)C5(C(F)(F)F)CCN(C6COC6)CC5)C(=O)O)cccc34)nccc12 [Compound 591]
[1]
  IC50: < 0.01 µM
[2]
  IC50: > 1 µM

## CN(C)Cc1cccc2c(-c3cccc4c(C[C@H](NC(=O)C5(C(F)(F)F)CCN([C@@H]6CCOC6)CC5)C(=O)O)cccc34)nccc12 [Compound 592]
[1]
  IC50: < 0.01 µM
[2]
  IC50: > 1 µM

## CN(C)Cc1cccc2c(-c3cccc4c(C[C@H](NC(=O)C5(C(F)(F)F)CCN([C@H]6CCOC6)CC5)C(=O)O)cccc34)nccc12 [Compound 593]
[1]
  IC50: < 0.01 µM
[2]
  IC50: 0.1 to 1 µM

## O=C(O)[C@H](Cc1cccc2c(-c3nccc4c(CN5CCC(F)(F)C5)cccc34)cccc12)NC(=O)C1(C(F)(F)F)CCN(CC(F)(F)F)CC1 [Compound 594]
[1]
  IC50: 0.01 to 0.1 µM
[2]
  IC50: > 1 µM

## O=C(O)[C@H](Cc1cccc2c(-c3nccc4c(CN5CCC(F)(F)C5)cccc34)cccc12)NC(=O)C1(C(F)(F)F)CCN(C2COC2)CC1 [Compound 595]
[1]
  IC50: < 0.01 µM
[2]
  IC50: 0.1 to 1 µM

## COc1ccc(CN2CCCC2)c(OC)c1-c1cccc2c(C[C@H](NC(=O)c3c(C)cccc3F)C(=O)O)cccc12 [Compound 596]
[1]
  IC50: < 0.01 µM
[2]
  IC50: 0.1 to 1 µM

## COc1ccc(CN2CCC(F)(F)C2)c(OC)c1-c1cccc2c(C[C@H](NC(=O)c3c(C)cccc3F)C(=O)O)cccc12 [Compound 597]
[1]
  IC50: 0.01 to 0.1 µM
[2]
  IC50: > 1 µM

## O=C(O)[C@H](Cc1cccc2c(-c3cc(CN4CCC(F)(F)C4)cc4ccncc34)cccc12)NC(=O)C1(C(F)(F)F)CCN(C2COC2)CC1 [Compound 598]
[1]
  IC50: 0.01 to 0.1 µM
[2]
  IC50: > 1 µM

## COc1ccc(CN(C)C)nc1-c1cccc2c(C[C@H](NC(=O)c3c(C)cccc3F)C(=O)O)cccc12 [Compound 599]
[1]
  IC50: < 0.01 µM
[2]
  IC50: 0.1 to 1 µM

## COc1ccc(CN2CCC(F)(F)CC2)nc1-c1cccc2c(C[C@H](NC(=O)c3c(C)cccc3F)C(=O)O)cccc12 [Compound 600]
[1]
  IC50: 0.01 to 0.1 µM
[2]
  IC50: > 1 µM

## COc1cnc(CN(C)C)cc1-c1cccc2c(C[C@H](NC(=O)c3c(C)cccc3F)C(=O)O)cccc12 [Compound 601]
[1]
  IC50: < 0.01 µM
[2]
  IC50: > 1 µM

## COc1ccc(CN(C)C)c(OC)c1-c1cccc2c(C[C@H](NC(=O)c3c(C)cc(C4CC(F)(F)C4)cc3F)C(=O)O)cccc12 [Compound 602]
[1]
  IC50: < 0.01 µM
[2]
  IC50: > 1 µM

## COc1ccc(CN(C)C)c(OC)c1-c1cccc2c(C[C@H](NC(=O)c3c(C)cc(C(F)(F)F)cc3F)C(=O)O)cccc12 [Compound 603]
[1]
  IC50: 0.01 to 0.1 µM
[2]
  IC50: > 1 µM

## COc1ccc(CN2CCC(F)(F)CC2)c(OC)c1-c1cccc2c(C[C@H](NC(=O)c3c(C)cncc3F)C(=O)O)cccc12 [Compound 604]
[1]
  IC50: < 0.01 µM
[2]
  IC50: > 1 µM

## COc1ccc(CN2CCC(F)(F)CC2)c(OC)c1-c1cccc2c(C[C@H](NC(=O)c3c(F)cccc3Cl)C(=O)O)cccc12 [Compound 605]
[1]
  IC50: 0.01 to 0.1 µM
[2]
  IC50: > 1 µM

## COc1ccc(CN2CCC(F)(F)CC2)c(OC)c1-c1cccc2c(C[C@H](NC(=O)c3c(C)ccnc3F)C(=O)O)cccc12 [Compound 606]
[1]
  IC50: 0.01 to 0.1 µM
[2]
  IC50: > 1 µM

## COc1ccc(CN(C)C)c(OC)c1-c1cccc2c(C[C@H](NC(=O)c3c(C)cc(NCC(F)(F)F)cc3F)C(=O)O)cccc12 [Compound 607]
[1]
  IC50: < 0.01 µM
[2]
  IC50: 0.1 to 1 µM

## COc1ccc(CN2CCC(F)(F)CC2)c(OC)c1-c1cccc2c(C[C@H](NC(=O)c3c(C)cc(NCC(F)(F)F)cc3F)C(=O)O)cccc12 [Compound 608]
[1]
  IC50: 0.01 to 0.1 µM
[2]
  IC50: > 1 µM

## COc1ccc(CN2CCC(F)(F)CC2)c(OC)c1-c1cccc2c(C[C@H](NC(=O)c3c(C)cc4cnn(CC(F)(F)F)c4c3F)C(=O)O)cccc12 [Compound 609]
[1]
  IC50: 0.01 to 0.1 µM
[2]
  IC50: 0.1 to 1 µM

## COc1ccc(CN(C)C)c(OC)c1-c1cccc2c(C[C@H](NC(=O)c3c(F)cccc3Cl)C(=O)O)cccc12 [Compound 610]
[1]
  IC50: < 0.01 µM
[2]
  IC50: 0.1 to 1 µM

## COc1ccc(CN2CCC(F)(F)CC2)c(OC)c1-c1cccc2c(C[C@H](NC(=O)C3(C(F)(F)F)CCN(C4COC4)CC3)C(=O)O)cccc12 [Compound 611]
[1]
  IC50: < 0.01 µM
[2]
  IC50: > 1 µM

## COc1ccc(CN(C)C)c(OC)c1-c1cccc2c(C[C@H](NC(=O)c3c(Cl)cccc3Cl)C(=O)O)cccc12 [Compound 612]
[1]
  IC50: < 0.01 µM
[2]
  IC50: 0.1 to 1 µM
